Reference: patent publication US20050197350A1, “Novel quinoline, tetrahydroquinazoline, and pyrimidine derivatives and methods of treatment related to the use thereof” (TAISHO PHARMACEUTICAL CO., LTD., priority 2003, published 2005)

The compounds below were run against MCH receptor (Homo sapiens, UniProt Q99705) (assay: High throughput functional screening FLIPR/FDSS6000 (intracellular Ca2+ evoked by MCH)). Details: FLIPR/FDSS, antagonist activity vs 50 nM MCH; class by percent of control at 10^−7 M or IC50; read-out: class.
Assay type: cell-based
Outline: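 For antagonist testing, compound-treated cells (30 min, 37 °C) were stimulated with 50 nM MCH and intracellular Ca2+ followed by Fluo4 fluorescence on FLIPR/FDSS6000. Receptor was a constitutively active, non-endogenous MCH receptor; dye loading 4 μM Fluo4-AM, 1 h, 37 °C.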
`Cc1cnc(N[C@H]2CC[C@@H](NC(=O)Nc3ccc(Cl)cc3)CC2)nc1N(C)C` [Example 3333, N-(4-chlorophenyl)-N′-(cis-4-{[4-(dimethylamino)-5-methylpyrimidin-2-yl]amino}cyclohexyl)urea] gave an IC50 of 50 to 200 nM.
`Cc1cnc(N[C@H]2CC[C@@H](NC(=O)Nc3cc(C(F)(F)F)cc(C(F)(F)F)c3)CC2)nc1N(C)C` [Example 3334, N-[3,5-bis(trifluoromethyl)phenyl]-N′-(cis-4-{[4-(dimethylamino)-5-methylpyrimidin-2-yl]amino}cyclohexyl)urea] was tested, and the IC50 was 50 to 200 nM.
For `Cc1cnc(N[C@H]2CC[C@@H](NC(=O)Nc3ccc(Br)cc3)CC2)nc1N(C)C` [Example 3335, N-(4-bromophenyl)-N′-(cis-4-{[4-(dimethylamino)-5-methylpyrimidin-2-yl]amino}cyclohexyl)urea], the IC50 was under 50 nM.
Compound `Cc1ccccc1NC(=O)N[C@H]1CC[C@@H](Nc2ncc(C)c(N(C)C)n2)CC1` [Example 3336, N-(cis-4-{[4-(dimethylamino)-5-methylpyrimidin-2-yl]amino}cyclohexyl)-N′-(2-methylphenyl)urea] has an IC50 of 50 to 200 nM.
Work on `Cc1cnc(N[C@H]2CC[C@@H](NC(=O)Nc3ccc(Cl)c(Cl)c3)CC2)nc1N(C)C` [Example 3337, N-(3,4-dichlorophenyl)-N′-(cis-4-{[4-(dimethylamino)-5-methylpyrimidin-2-yl]amino}cyclohexyl)urea] yielded an IC50 of 50 to 200 nM.
For `Cc1cnc(N[C@H]2CC[C@@H](NC(=O)Nc3ccc(Cl)cc3Cl)CC2)nc1N(C)C` [Example 3338, N-(2,4-dichlorophenyl)-N′-(cis-4-{[4-(dimethylamino)-5-methylpyrimidin-2-yl]amino}cyclohexyl)urea], the IC50 was 50 to 200 nM.
Work on `Cc1cnc(N[C@H]2CC[C@@H](NC(=O)Nc3cc(Cl)cc(Cl)c3)CC2)nc1N(C)C` [Example 3339, N-(3,5-dichlorophenyl)-N′-(cis-4-{[4-(dimethylamino)-5-methylpyrimidin-2-yl]amino}cyclohexyl)urea] yielded an IC50 of 50 to 200 nM.
Work on `Cc1cnc(N[C@H]2CC[C@@H](NC(=O)NCc3ccccc3)CC2)nc1N(C)C` [Example 3341, N-benzyl-N′-(cis-4-{[4-(dimethylamino)-5-methylpyrimidin-2-yl]amino}cyclohexyl)urea] yielded an IC50 of 50 to 200 nM.
`Cc1cnc(N[C@H]2CC[C@@H](NC(=O)Nc3cc(Cl)ccc3Cl)CC2)nc1N(C)C` [Example 3342, N-(2,5-dichlorophenyl)-N′-(cis-4-{[4-(dimethylamino)-5-methylpyrimidin-2-yl]amino}cyclohexyl)urea] gave an IC50 of 50 to 200 nM.
In the case of `Cc1cnc(N[C@H]2CC[C@@H](NC(=O)Nc3cccc(Cl)c3Cl)CC2)nc1N(C)C` [Example 3343, N-(2,3-dichlorophenyl)-N′-(cis-4-{[4-(dimethylamino)-5-methylpyrimidin-2-yl]amino}cyclohexyl)urea], the IC50 is reported as over 200 nM.
With `Cc1cnc(N[C@H]2CC[C@@H](NC(=O)Nc3c(Cl)cccc3C(F)(F)F)CC2)nc1N(C)C` [Example 3344, N-[2-chloro-6-(trifluoromethyl)phenyl]-N′-(cis-4-{[4-(dimethylamino)-5-methylpyrimidin-2-yl]amino}cyclohexyl)urea] the IC50 was over 200 nM.
For `Cc1cnc(N[C@H]2CC[C@@H](NC(=O)Nc3c(Cl)cc(Cl)cc3Cl)CC2)nc1N(C)C` [Example 3345, N-(cis-4-{[4-(dimethylamino)-5-methylpyrimidin-2-yl]amino}cyclohexyl)-N′-(2,4,6-trichlorophenyl)urea], the IC50 was under 50 nM.
Compound `Cc1cnc(N[C@H]2CC[C@@H](NC(=O)N(C)c3ccccc3F)CC2)nc1N(C)C` [Example 3346, N′-(cis-4-{[4-(dimethylamino)-5-methylpyrimidin-2-yl]amino}cyclohexyl)-N-(2-fluorophenyl)-N-methylurea] has an IC50 of over 200 nM.
`Cc1cnc(N[C@H]2CC[C@@H](NC(=O)N(C)c3ccccc3Cl)CC2)nc1N(C)C` [Example 3347, N-(2-chlorophenyl)-N′-(cis-4-{[4-(dimethylamino)-5-methylpyrimidin-2-yl]amino}cyclohexyl)-N-methylurea] gave an IC50 of 50 to 200 nM.
With `Cc1cnc(N[C@H]2CC[C@@H](NC(=O)N(C)c3ccc(Cl)cc3Cl)CC2)nc1N(C)C` [Example 3348, N-(2,4-dichlorophenyl)-N′-(cis-4-{[4-(dimethylamino)-5-methylpyrimidin-2-yl]amino}cyclohexyl)-N-methylurea] the IC50 was under 50 nM.
`CCN(C(=O)N[C@H]1CC[C@@H](Nc2ncc(C)c(N(C)C)n2)CC1)c1ccccc1OC(F)(F)F` [Example 3349, N′-(cis-4-{[4-(dimethylamino)-5-methylpyrimidin-2-yl]amino}cyclohexyl)-N-ethyl-N-[2-(trifluoromethoxy)-phenyl]urea] showed an IC50 of 50 to 200 nM.
`CCN(C(=O)N[C@H]1CC[C@@H](Nc2ncc(C)c(N(C)C)n2)CC1)c1ccccc1` [Example 3350, N′-(cis-4-{[4-(dimethylamino)-5-methylpyrimidin-2-yl]amino}cyclohexyl)-N-ethyl-N-phenylurea] was tested, and the IC50 was under 50 nM.
With `CCN(C(=O)N[C@H]1CC[C@@H](Nc2ncc(C)c(N(C)C)n2)CC1)c1ccc(OC(F)(F)F)cc1` [Example 3351, N′-(cis-4-{[4-(dimethylamino)-5-methylpyrimidin-2-yl]amino}cyclohexyl)-N-ethyl-N-[4-(trifluoromethoxy)-phenyl]urea] the IC50 was under 50 nM.
In the case of `Cc1cnc(N[C@H]2CC[C@@H](NC(=O)N(C)c3ccccc3OC(F)(F)F)CC2)nc1N(C)C` [Example 3352, N′-(cis-4-{[4-(dimethylamino)-5-methylpyrimidin-2-yl]amino}cyclohexyl)-N-methyl-N-[2-(trifluoromethoxy)-phenyl]urea], the IC50 is reported as under 50 nM.
For `CCN(C(=O)N[C@H]1CC[C@@H](Nc2ncc(C)c(N(C)C)n2)CC1)c1ccc(Cl)cc1` [Example 3353, N-(4-chlorophenyl)-N′-(cis-4-{[4-(dimethylamino)-5-methylpyrimidin-2-yl]amino}cyclohexyl)-N-ethylurea], the IC50 was under 50 nM.
For `CCN(C(=O)N[C@H]1CC[C@@H](Nc2ncc(C)c(N(C)C)n2)CC1)c1cc(C(F)(F)F)cc(C(F)(F)F)c1` [Example 3354, N-[3,5-bis(trifluoromethyl)phenyl]-N′-(cis-4-{[4-(dimethylamino)-5-methylpyrimidin-2-yl]amino}cyclohexyl)-N-ethylurea], the IC50 was under 50 nM.
Compound `CCN(C(=O)N[C@H]1CC[C@@H](Nc2ncc(C)c(N(C)C)n2)CC1)c1cccc(C)c1` [Example 3355, N′-(cis-4-{[4-(dimethylamino)-5-methylpyrimidin-2-yl]amino}cyclohexyl)-N-ethyl-N-(3-methylphenyl)urea] has an IC50 of under 50 nM.
`Cc1cnc(N[C@H]2CC[C@@H](NC(=O)COc3cc(C(F)(F)F)nn3C)CC2)nc1N(C)C` [Example 3356, N-(cis-4-{[4-(dimethylamino)-5-methylpyrimidin-2-yl]amino}cyclohexyl)-2-{[1-methyl-3-(trifluoromethyl)-1H-pyrazol-5-yl]oxy}acetamide] showed an IC50 of under 50 nM.
With `Cc1cnc(N[C@H]2CC[C@@H](NC(=O)COc3cc(C(F)(F)F)ncn3)CC2)nc1N(C)C` [Example 3357, N-(cis-4-{[4-(dimethylamino)-5-methylpyrimidin-2-yl]amino}cyclohexyl)-2-{[6-(trifluoromethyl)pyrimidin-4-yl]oxy}acetamide] the IC50 was over 200 nM.
For `CNc1cc(C)nc(N[C@H]2CC[C@@H](NC(=O)COc3ccc(Cl)c(Cl)c3)CC2)n1` [Example 3360, 2-(3,4-dichlorophenoxy)-N-(cis-4-{[4-methyl-6-(methylamino)pyrimidin-2-yl]amino}cycohexyl)acetamide], the IC50 was under 50 nM.
